Results taken from ChEMBL document CHEMBL6153042, “Glycoconjugates of adefovir and tenofovir as asialoglycoprotein-mediated Anti-HBV prodrugs with enhanced liver targeting” (Eur J Med Chem, 2025).

Tests used:
[1] = Toxicity in Kunming mouse assessed as histopathological changes in liver at 200 mg/kg, iv once daily for 5 days by H and E staining based analysis; type: organism-based; settings: in vivo, 120 h, time 5 day
[2] = Toxicity in Kunming mouse assessed as effect on body weight at 100 to 200 mg/kg, iv administered once daily for 5 days; type: organism-based; settings: in vivo, 120 h, dose 100-200 mg/kg, time 5 day
LX-2 [3] = test: Cytotoxicity against human LX2 cells at 5 uM incubated for 48 hrs by CCK8 assay; type: toxicity, cell-based; settings: lx-2, 48 h
[4] = Toxicity in Kunming mouse assessed as maximum tolerated dose administered intravenously as once daily dose for 5 days; settings: in vivo, route iv, time 5 day
LX-2 [5] = test: Cytotoxicity against human LX2 cells assessed as cell growth inhibition at 10 uM incubated for 48 hrs by CCK8 assay relative to control; type: toxicity, cell-based; settings: lx-2, 48 h, 10 µM
[6] = Cytotoxicity against human HepG2.2.15 cells assessed as inhibition of cell proliferation by CCK8 assay; type: toxicity, cell-based, HepG2 2.2.15
Hepatitis B virus [7] = test: Antiviral activity against Hepatitis B virus infected in human HepG2.2.15 cells assessed as inhibition of HBV DNA replication incubated for 10 day by qPCR analysis; type: functional, organism-based; settings: HepG2.2.15, 240 h
[8] = Selectivity index, the ratio of CC50 for human HepG2.2.15 cells to EC50 for antiviral activity against HBV in human HepG2.2.15 cells assessed as inhibition of HBV DNA replication; type: toxicity, cell-based; settings: read-out: Ratio CC50/EC50
[9] = Toxicity in Kunming mouse assessed as histopathological changes in heart at 200 mg/kg, iv once daily for 5 days by H and E staining based analysis; type: organism-based; settings: in vivo, 120 h, time 5 day
[10] = Toxicity in Kunming mouse assessed as histopathological changes in kidney at 200 mg/kg, iv once daily for 5 days by H and E staining based analysis; type: organism-based; settings: in vivo, 120 h, time 5 day
[11] = Stability of compound in PBS buffer assessed as half-life by high-performance liquid chromatography; type: physicochemical
[12] = Drug uptake in Sprague-Dawley rat liver at 10 mg/kg, iv measured after 1 to 6 hrs by LC-MS/MS analysis; type: ADME, organism-based; settings: in vivo, time 1-6 hrs
[13] = Drug metabolism in plasma of Sprague-Dawley rat assessed as (1-(36-(((2R,3R,4S,5R,6R)-3-acetamido-4,5-dihydroxy-6-(hydroxymethyl)tetrahydro-2H-pyran-2-yl)oxy)-21,21-bis((3-((3-(5-(((2R,3R,4S,5R,6R)-3-acetamido-4,5-dihydroxy-6-(hydroxymethyl)tetrahydro-2H-pyran-2-yl)oxy)pentanamido)propyl)amino)-3-oxopropoxy)methyl)-16,19,26,32-tetraoxo-3,6,9,12,23-pentaoxa-15,20,27,31-tetraazahexatriacontyl)-1H-1,2,3-triazol-4-yl)methyl hydrogen ((((R)-1-(6-amino-9H-purin-9-yl)propan-2-yl)oxy)methyl)phosphonate formation measured at 2.1 mins by HPLC analysis; type: ADME, cell-free; settings: 0.035 h
[14] = Toxicity in Kunming mouse assessed as effect on heart colour at 100 to 200 mg/kg, iv once daily for 5 days; type: organism-based; settings: in vivo, 120 h, dose 100-200 mg/kg, time 5 day
[15] = Toxicity in Kunming mouse assessed as effect on liver colour at 100 to 200 mg/kg, iv once daily for 5 days; type: organism-based; settings: in vivo, 120 h, dose 100-200 mg/kg, time 5 day
[16] = Toxicity in Kunming mouse assessed as effect on kidney colour at 100 to 200 mg/kg, iv once daily for 5 days; type: organism-based; settings: in vivo, 120 h, dose 100-200 mg/kg, time 5 day
[17] = Toxicity in Kunming mouse assessed as effect on heart size at 100 to 200 mg/kg, iv once daily for 5 days; type: organism-based; settings: in vivo, 120 h, dose 100-200 mg/kg, time 5 day
[18] = Toxicity in Kunming mouse assessed as effect on liver size at 100 to 200 mg/kg, iv once daily for 5 days; type: organism-based; settings: in vivo, 120 h, dose 100-200 mg/kg, time 5 day
[19] = Toxicity in Kunming mouse assessed as effect on kidney size at 100 to 200 mg/kg, iv once daily for 5 days; type: organism-based; settings: in vivo, 120 h, dose 100-200 mg/kg, time 5 day
[20] = Toxicity in Kunming mouse assessed as effect on heart weight at 100 to 200 mg/kg, iv once daily for 5 days; type: organism-based; settings: in vivo, 120 h, dose 100-200 mg/kg, time 5 day
[21] = Toxicity in Kunming mouse assessed as effect on liver weight at 100 to 200 mg/kg, iv once daily for 5 days; type: organism-based; settings: in vivo, 120 h, dose 100-200 mg/kg, time 5 day
[22] = Toxicity in Kunming mouse assessed as effect on kidney weight at 100 to 200 mg/kg, iv once daily for 5 days; type: organism-based; settings: in vivo, 120 h, dose 100-200 mg/kg, time 5 day
Hepatitis B virus [23] = test: Antiviral activity against Hepatitis B virus infected in human HepG2.2.15 cells assessed as inhibition of HBV DNA replication incubated for 9 day; settings: HepG2.2.15, 216 h

**Q.** For `CC(=O)N[C@H]1[C@H](OCCCCC(=O)NCCCNC(=O)CCOCC(COCCC(=O)NCCCNC(=O)CCCCO[C@@H]2O[C@H](CO)[C@H](O)[C@@H](O)[C@H]2NC(C)=O)(COCCC(=O)NCCCNC(=O)CCCCO[C@@H]2O[C@H](CO)[C@H](O)[C@@H](O)[C@H]2NC(C)=O)NC(=O)CCC(=O)NCCOCCOCCOCCOCCn2cc(COP(=O)(CO[C@H](C)Cn3cnc4c(N)ncnc43)OCOC(=O)OC(C)C)nn2)O[C@H](CO)[C@H](O)[C@H]1O` (stereo not given in full), which Activity [1] is on record?
**A.** Non-toxic

**Q.** And the Activity [2]?
**A.** Non-toxic

**Q.** And the Activity (LX-2 [3])?
**A.** Toxic

**Q.** What about the MTD at 120 h [4] of the same molecule?
**A.** ~200 mg/kg

**Q.** What about the Activity (LX-2 [5]) of the same molecule?
**A.** Toxic

**Q.** What about the CC50 [6] of the same molecule?
**A.** > 100000 nM

**Q.** And the EC50 (Hepatitis B virus [7])?
**A.** 94.8 nM

**Q.** And the selectivity ratio [8]?
**A.** > 1050

**Q.** And the Activity [9]?
**A.** Non-toxic

**Q.** What about the Activity [10] of the same molecule?
**A.** Non-toxic

**Q.** What about the half-life [11] of the same molecule?
**A.** > 24 h

**Q.** And the Drug uptake [12]?
**A.** Active

**Q.** What about the Drug metabolism [13] of the same molecule?
**A.** metabolite_detected

**Q.** And the Activity [14]?
**A.** Non-toxic

**Q.** What about the Activity [15] of the same molecule?
**A.** Non-toxic

**Q.** And the Activity [16]?
**A.** Non-toxic

**Q.** What about the Activity [17] of the same molecule?
**A.** Non-toxic

**Q.** And the Activity [18]?
**A.** Non-toxic

**Q.** What about the Activity [19] of the same molecule?
**A.** Non-toxic

**Q.** What about the Activity [20] of the same molecule?
**A.** Non-toxic

**Q.** And the Activity [21]?
**A.** Non-toxic

**Q.** What about the Activity [22] of the same molecule?
**A.** Non-toxic

**Q.** For `CC(C)OC(=O)[C@H](C)N[P@](=O)(CO[C@H](C)Cn1cnc2c(N)ncnc21)Oc1ccccc1` [TENOFOVIR ALAFENAMIDE], which Activity (LX-2 [3]) is on record?
**A.** Toxic

**Q.** What about the Activity (LX-2 [5]) of the same molecule?
**A.** Toxic

**Q.** And the EC50 (Hepatitis B virus [23])?
**A.** 12.2 nM
